Measured values from patent EP1285918A1, “C7 Ester substituted taxanes as antitumor agents” (Florida State University Research Foundation, Inc., priority 2001, dated 2003).
Like-named read-outs stand apart in the source and are kept apart here.

What was measured:
[1] = tested on: DU 145 Human Prostate Carcinoma Xenografts; details: DU145, i.v. qd x 1 (mg/kg: Taxol 24, 1351 107.6, 1393 72.6, 1401 107.6, 1418 107.6, 1424 195.1)
Protocol: (§1) Other antitumor compounds were similarly formulated. […] The dosing volume was 0.3 ml per 20 g mouse.
Male NCr-nude mice (implanted subcutaneously with 1 mm^3 DU145 prostate carcinoma fragments in the flank) were sorted into treatment groups of five mice each. […] Dosing was initiated on Day 1. The antitumor compounds were given i.v. at an estimated maximum tolerated dose (MTD) appropriate for each agent on a qd x 1 schedule (single administration of compound). […] The vehicle was administered i.v. to control mice in Group 1 on the qd x 1 schedule. The study was terminated on Day 91. Treatment groups are detailed in Table 5.
(§2) The mean days of survival is the number of days after which a neoplasm reached a size of 1.5 g and the animal was euthanized. A complete response is obtained if the tumor is not palpable at the end of the study. A partial response is obtained if the tumor shrinks to a size smaller than its size on Day 1 of the study. […]

[2] = tested on: A375 Human Melanoma Xenografts; details: A375, i.v. qd x 1 (mg/kg: Taxol 24, 1351 107.6, 1393 72.6, 1401 107.6, 1418 107.6, 1424 195.1, Taxotere 70)
Protocol: as §1
Female NCr-nude mice (implanted subcutaneously with 1 mm^3 A375 melanoma in the flank) were sorted into treatment groups of six mice each, except for the Taxotere group having seven mice each. […] Dosing was initiated on Day 1. The antitumor compounds were given i.v. at an estimated maximum tolerated dose (MTD) appropriate for each agent on a qd x 1 schedule (single administration of compound). […] Taxotere was given i.v. on a qd x 1 schedule at a dose of 70 mg/kg. The vehicle was administered i.v. to control mice in Group 1 on the qd x 1 schedule. Treatment groups are detailed in Table 9. The study was terminated on Day 60.
as §2, with “The results are summarized in Table 10 and include mean days of survival (MDS), number of toxic deaths, number of survivors, number of complete or partial responses, and number with stable disease. The” for “The”, “tumor” for “neoplasm”, “2.0” for “1.5”

[3] = tested on: VM46 Human Colon Carcinoma Xenografts; details: 6 mice/group
Protocol: (§3) Other antitumor compounds were similarly formulated. […] The dosing volume was 0.3 mL per 20 g mouse.
(§4) Female NCr-nude mice (6-8 weeks of age, implanted subcutaneously with 1 mm^3 VM46 colon carcinoma fragments in the flank) were sorted into treatment groups of six mice each. […] Dosing was initiated on Day 1. The antitumor compounds were given i.v. at an estimated maximum tolerated dose (MTD) appropriate for each agent on a qd x 1 schedule (single administration of compound). […] Taxotere was given i.v. at a dose of 70 mg/kg on a qd x 1 schedule. The vehicle was given i.v. to control mice in Group 1 in each test on Day 1 (qd x 1) schedule. Treatment groups are detailed in Table 13. The VM46 study ended on Day 64.
as §2, with “The results are summarized in table 14 and include mean days of survival (MDS), number of toxic deaths, number of survivors, number of complete or partial responses, and number with stable disease. The” for “The”

[4] = tested on: Panc-1 Human Pancreatic Carcinoma Xenografts; details: i.v. qd x 1 at estimated MTD; 6 mice/group; study end Day 63
Protocol: as §3
as §4, with “Panc-1 pancreatic” for “VM46 colon”, “12.” for “13.”, “The” for “The VM46”, “was terminated” for “ended”, “63.” for “64.”
The mean days of survival is the number of days after which a neoplasm reached a size of 1.5 g and the animal was euthanized. A complete response is obtained if the tumor is not palpable at the end of the study. A partial response is obtained if the tumor shrinks to a size smaller than its size on Day 1 of the study.

[5] = tested on: HCT116; assay: In Vitro cytotoxicity measured by the cell colony formation assay; assay type: cell-based; details: Homo sapiens, HCT-116; 72 h drug incubation, colonies counted after 7 days; concentration producing 50% inhibition of colony formation; read-out: IN VITRO ID 50 (nm) HCT116
Protocol: In Vitro cytotoxicity measured by the cell colony formation assay
Four hundred cells (HCT116) were plated in 60 mm Petri dishes containing 2.7 mL of medium (modified McCoy's 5a medium containing 10% fetal bovine serum and 100 units/mL penicillin and […] streptomycin). The cells were incubated in a CO2 incubator at 37 °C for 5 h for attachment to the bottom of Petri dishes. The compounds identified in Example 2 were made up fresh in medium at ten times the final concentration, and then 0.3 mL of this stock solution was added to the 2.7 mL of medium in the dish. The cells were then incubated with drugs for 72 h at 37 ° C. At the end of incubation the drug-containing media were decanted, the dishes were rinsed with 4 mL of Hank's Balance Salt Solution (HBSS), 5 mL of fresh medium was added, and the dishes were returned to the incubator for colony formation. The cell colonies were counted using a colony counter after incubation for 7 days. Cell survival was calculated and the values of ID50 (the drug concentration producing 50% inhibition of colony formation) were determined for each tested compound.

[6] = tested on: MX-1 Human Breast Carcinoma Xenograft; assay: In vivo evaluation of oral administration of antitumor compounds against MX-1 human breast carcinoma xenograft (Example 25); details: for Maximum Weight Loss (Day) / Partial Response / Stable Disease / Toxic Deaths / Mean Day of Survival (n): 6 mice/group; for Maximum Weight Loss (Day): on Day 5; for Partial Response / Stable Disease / Toxic Deaths / Mean Day of Survival (n): study end Day 63; for Mean Day of Survival (n): days until tumor reached 1.5 g; for survival compared to vehicle control mice: MX-1, single oral bolus, doses of Table 22, Day 63; for Complete Response: po, 1512 h
From the text: This study investigated the efficacy of various antitumor compounds when administered orally against the MX-1 human breast carcinoma xenograft.
(§5) The study was terminated on Day 63.

[7] = tested on: blood cell populations; assay: Effect of oral treatment on blood cell populations, body weight and tumor weight in MX-1 bearing mice (Example 25, Table 23); assay type: in vivo, nu/nu mice; details: for Weight: tumor weight at Day 18
Protocol: as §5
In addition to survival and tumor regression responses, the effect of treatment on blood cell populations was assessed. The major effect of these antitumor compounds on blood cell populations was a marked reduction in the neutrophil cell number. As well, monocyte depletion correlated fairly well with neutrophil reduction for each antitumor compound. […] There was a correlation between antitumor activity and reduced neutrophil count. In general, toxicity (as determined by neutrophil depletion) and weight loss correlated with efficacy. Importantly, the toxicities observed with the very efficacious antitumor compounds were manageable and reversible; neutrophil count and body weight rebounded from their low points in just a few days. Table 23 summarizes the weight reduction, neutrophil and monocyte measurements on Day 4, with tumor weight reduction calculated at Day 18: Table 23

[8] = tumor score 1 to 10, group mean
[9] = 195.1 mg/kg i.v. qd x 1, study end Day 64
[10] = Day 4, 233 mg/kg single oral bolus
[11] = Day 4, 160 mg/kg single oral bolus

CCC(=O)O[C@H]1C[C@H]2OC[C@@]2(OC(C)=O)[C@H]2[C@H](OC(=O)c3ccccc3)[C@]3(O)C[C@H](OC(=O)[C@H](O)[C@@H](NC(=O)OC(C)(C)C)c4ccsc4)C(C)=C([C@@H](O)C(=O)[C@]12C)C3(C)C [Compound 1424]
MDS (n) ([1]; 5 mice/group, 1.5 g cut-off, Day 91): 76.0 ± 5.4 (4) days
Complete Response ([1]; 5 mice/group, Day 91): 0
Partial Response ([1]; 5 mice/group, Day 91): 1
Stable Disease ([1]; 5 mice/group, Day 91): 0
Survivors ([1]; 5 mice/group, Day 91): 1
Toxic Deaths ([1]; 5 mice/group, Day 91): 0
Mean Score [1, 8]: 3.6 ± 1.1
MDS (n) ([2]; 2.0 g cut-off, Day 60): 30.7 ± 1.1 (2) days
Complete Response ([2]; Day 60): 0
Partial Response ([2]; Day 60): 0
Stable Disease ([2]; Day 60): 0
Survivors ([2]; Day 60): 0
Mean Score [2, 8]: 1 ± 0.6
Complete Response [3, 9]: 0
Mean Score [3, 9]: 0.8 ± 0.4
Partial Response [3, 9]: 0
Stable Disease [3, 9]: 0
Survivors [3, 9]: 0
Toxic Deaths [3, 9]: 3
MDS (n) ([3]; 195.1 mg/kg i.v. qd x 1, study end Day 64, days until tumor reached 1.5 g): 45.4 ± 8.1 (3) days
Toxic Deaths ([3]; VM46, i.v. qd x 1 at estimated MTD): three
Complete Response [4]: 0
Mean Score [4]: 0 ± 0
Partial Response [4]: 0
Stable Disease [4]: 0
Survivors [4]: 0
Toxic Deaths [4]: 6

CCC(=O)O[C@H]1C[C@H]2OC[C@@]2(OC(C)=O)[C@H]2[C@H](OC(=O)c3ccccc3)[C@]3(O)C[C@H](OC(=O)[C@H](O)[C@@H](NC(=O)OC(C)(C)C)c4ccccc4)C(C)=C([C@@H](O)C(=O)[C@]12C)C3(C)C [Compound 1458]
IC50 [5]: < 10 nM
Maximum Weight Loss (Day) ([6]; 233 mg/kg single oral bolus): -5.8% (5)
Partial Response ([6]; 233 mg/kg single oral bolus): 0
Stable Disease ([6]; 233 mg/kg single oral bolus): 0
Toxic Deaths ([6]; 233 mg/kg single oral bolus): 0
Mean Day of Survival (n) ([6]; 233 mg/kg single oral bolus): 46.0 ± 1.6 (5) days
survival compared to vehicle control mice [6]: significant survival extensions
Complete Response ([6]; 233 mg/kg): 1
Monocytes (K/µL) [7, 10]: 0.057 K/µL
Neutrophils (K/µL) [7, 10]: 0.232 K/µL
% Reduction ([7]; reduction of monocytes, Day 4, 233 mg/kg single oral bolus): 40.6%
% Reduction ([7]; reduction of neutrophils, Day 4, 233 mg/kg single oral bolus): 74.5%
% Reduction ([7]; reduction of tumor weight at Day 18, 233 mg/kg single oral bolus): 97.5%
Weight ([7]; 233 mg/kg single oral bolus): 21.8 mg

CCC(=O)OC1CC2OCC2(OC(C)=O)C2C(OC(=O)c3ccccc3)C3(O)CC(OC(=O)C(O)C(NC(=O)c4ccccc4)c4ccco4)C(C)=C(C(O)C(=O)C12C)C3(C)C (stereo not shown) [Compound 4017]
IC50 [5]: < 10 nM
Maximum Weight Loss (Day) ([6]; 160 mg/kg single oral bolus): -4.3% (5)
Partial Response ([6]; 160 mg/kg single oral bolus): 0
Stable Disease ([6]; 160 mg/kg single oral bolus): 0
Toxic Deaths ([6]; 160 mg/kg single oral bolus): 1
Mean Day of Survival (n) ([6]; 160 mg/kg single oral bolus): 39.4 ± 4.6 (5) days
survival compared to vehicle control mice [6]: significant survival extensions
Complete Response ([6]; 160 mg/kg): 0
Monocytes (K/µL) [7, 11]: 0.073 K/µL
Neutrophils (K/µL) [7, 11]: 0.228 K/µL
% Reduction ([7]; reduction of monocytes, Day 4, 160 mg/kg single oral bolus): 24.0%
% Reduction ([7]; reduction of neutrophils, Day 4, 160 mg/kg single oral bolus): 75.0%
% Reduction ([7]; reduction of tumor weight at Day 18, 160 mg/kg single oral bolus): 70.5%
Weight ([7]; 160 mg/kg single oral bolus): 256.5 mg
